Laboratory results published in PMC6274539, “Photoactivatable Caged Prodrugs of VEGFR-2 Kinase Inhibitors” (Molecules, 2016).

How the values were obtained:
Assay in all cases: kinase profiling, radioactive filter binding assay
Type in all cases: biochemical
CAMK1 = CAMK1 (Homo sapiens, UniProt Q14012); details: 0.1 µM compound, assay duplicates; read-out: residual activity of CAMK1, mean percentage activity
Procedure: (§1) The used method was a radioactive filter binding assay using ^33P ATP, for details see references. The substances were dissolved in DMSO at tested concentration of 0.1 µM. The mean percentage residual kinase activity and standard deviations of assay duplicates were determined. Analyses were performed by the International Center for Kinase Profiling at the University of Dundee, UK.

CDK2-Cyclin A = CDK2-Cyclin A (Homo sapiens, UniProt P24941); details: 0.1 µM compound, assay duplicates; read-out: residual activity of CDK2-Cyclin A, mean percentage activity
Procedure: as §1

CHK2 = CHK2 (Homo sapiens, UniProt O96017); details: 0.1 µM compound, assay duplicates; read-out: residual activity of CHK2, mean percentage activity
Procedure: as §1

CSK = CSK (Homo sapiens, UniProt P41240); details: 0.1 µM compound, assay duplicates; read-out: residual activity of CSK, mean percentage activity
Procedure: as §1

DYRK2 = DYRK2 (Homo sapiens, UniProt Q92630); details: 0.1 µM compound, assay duplicates; read-out: residual activity of DYRK2, mean percentage activity
Procedure: as §1

EFK2 = EFK2 (Homo sapiens, UniProt O00418); details: 0.1 µM compound, assay duplicates; read-out: residual activity of EFK2, mean percentage activity
Procedure: as §1

ERK8 = ERK8 (Homo sapiens, UniProt Q8TD08); details: 0.1 µM compound, assay duplicates; read-out: residual activity of ERK8, mean percentage activity
Procedure: as §1

IGF1-R = IGF1-R (Homo sapiens, UniProt P08069); details: 0.1 µM compound, assay duplicates; read-out: residual activity of IGF1-R, mean percentage activity
Procedure: as §1

IKK epsilon (14231) = IKK epsilon (14231) (Homo sapiens, UniProt Q14164); details: 0.1 µM compound, assay duplicates; read-out: residual activity of IKK epsilon (14231), mean percentage activity
Procedure: as §1

JNK2 = JNK2 (Homo sapiens, UniProt P45984); details: 0.1 µM compound, assay duplicates; read-out: residual activity of JNK2, mean percentage activity
Procedure: as §1

MARK3 = MARK3 (Homo sapiens, UniProt P27448); details: 0.1 µM compound, assay duplicates; read-out: residual activity of MARK3, mean percentage activity
Procedure: as §1

NEK2a = NEK2a (Homo sapiens, UniProt P51955); details: 0.1 µM compound, assay duplicates; read-out: residual activity of NEK2a, mean percentage activity
Procedure: as §1

PAK4 = PAK4 (Homo sapiens, UniProt O96013); details: 0.1 µM compound, assay duplicates; read-out: residual activity of PAK4, mean percentage activity
Procedure: as §1

PAK5 = PAK5 (Homo sapiens, UniProt Q9P286); details: 0.1 µM compound, assay duplicates; read-out: residual activity of PAK5, mean percentage activity
Procedure: as §1

PDK1 = PDK1 (Homo sapiens, UniProt O15530); details: 0.1 µM compound, assay duplicates; read-out: residual activity of PDK1, mean percentage activity
Procedure: as §1

PHK = details: 0.1 µM compound, assay duplicates
Procedure: as §1

PIM2 = PIM2 (Homo sapiens, UniProt Q9P1W9); details: 0.1 µM compound, assay duplicates; read-out: residual activity of PIM2, mean percentage activity
Procedure: as §1

PKBa = PKBa (Homo sapiens, UniProt P31749); details: 0.1 µM compound, assay duplicates; read-out: residual activity of PKBa, mean percentage activity
Procedure: as §1

PKBb = PKBb (Homo sapiens, UniProt P31751); details: 0.1 µM compound, assay duplicates; read-out: residual activity of PKBb, mean percentage activity
Procedure: as §1

PKC zeta = PKC zeta (Homo sapiens, UniProt Q05513); details: 0.1 µM compound, assay duplicates; read-out: residual activity of PKC zeta, mean percentage activity
Procedure: as §1

PRAK = PRAK (Homo sapiens, UniProt Q8IW41); details: 0.1 µM compound, assay duplicates; read-out: residual activity of PRAK, mean percentage activity
Procedure: as §1

RSK1 = RSK1 (Homo sapiens, UniProt Q15418); details: 0.1 µM compound, assay duplicates; read-out: residual activity of RSK1, mean percentage activity
Procedure: as §1

S6K1 = S6K1 (Homo sapiens, UniProt P23443); details: 0.1 µM compound, assay duplicates; read-out: residual activity of S6K1, mean percentage activity
Procedure: as §1

SGK1 = SGK1 (Homo sapiens, UniProt O00141); details: 0.1 µM compound, assay duplicates; read-out: residual activity of SGK1, mean percentage activity
Procedure: as §1

Src = Src (Homo sapiens, UniProt P12931); details: 0.1 µM compound, assay duplicates; read-out: residual activity of Src, mean percentage activity
Procedure: as §1

TBK1 = TBK1 (Homo sapiens, UniProt Q9UHD2); details: 0.1 µM compound, assay duplicates; read-out: residual activity of TBK1, mean percentage activity
Procedure: as §1

VEG-FR = details: 0.1 µM compound, assay duplicates
Procedure: as §1

YES1 = YES1 (Homo sapiens, UniProt P07947); details: 0.1 µM compound, assay duplicates; read-out: residual activity of YES1, mean percentage activity
Procedure: as §1

p38g MAPK = p38g MAPK (Homo sapiens, UniProt P53778); details: 0.1 µM compound, assay duplicates; read-out: residual activity of p38g MAPK, mean percentage activity
Procedure: as §1

Sequence of IGF1-R (P08069 31-1367): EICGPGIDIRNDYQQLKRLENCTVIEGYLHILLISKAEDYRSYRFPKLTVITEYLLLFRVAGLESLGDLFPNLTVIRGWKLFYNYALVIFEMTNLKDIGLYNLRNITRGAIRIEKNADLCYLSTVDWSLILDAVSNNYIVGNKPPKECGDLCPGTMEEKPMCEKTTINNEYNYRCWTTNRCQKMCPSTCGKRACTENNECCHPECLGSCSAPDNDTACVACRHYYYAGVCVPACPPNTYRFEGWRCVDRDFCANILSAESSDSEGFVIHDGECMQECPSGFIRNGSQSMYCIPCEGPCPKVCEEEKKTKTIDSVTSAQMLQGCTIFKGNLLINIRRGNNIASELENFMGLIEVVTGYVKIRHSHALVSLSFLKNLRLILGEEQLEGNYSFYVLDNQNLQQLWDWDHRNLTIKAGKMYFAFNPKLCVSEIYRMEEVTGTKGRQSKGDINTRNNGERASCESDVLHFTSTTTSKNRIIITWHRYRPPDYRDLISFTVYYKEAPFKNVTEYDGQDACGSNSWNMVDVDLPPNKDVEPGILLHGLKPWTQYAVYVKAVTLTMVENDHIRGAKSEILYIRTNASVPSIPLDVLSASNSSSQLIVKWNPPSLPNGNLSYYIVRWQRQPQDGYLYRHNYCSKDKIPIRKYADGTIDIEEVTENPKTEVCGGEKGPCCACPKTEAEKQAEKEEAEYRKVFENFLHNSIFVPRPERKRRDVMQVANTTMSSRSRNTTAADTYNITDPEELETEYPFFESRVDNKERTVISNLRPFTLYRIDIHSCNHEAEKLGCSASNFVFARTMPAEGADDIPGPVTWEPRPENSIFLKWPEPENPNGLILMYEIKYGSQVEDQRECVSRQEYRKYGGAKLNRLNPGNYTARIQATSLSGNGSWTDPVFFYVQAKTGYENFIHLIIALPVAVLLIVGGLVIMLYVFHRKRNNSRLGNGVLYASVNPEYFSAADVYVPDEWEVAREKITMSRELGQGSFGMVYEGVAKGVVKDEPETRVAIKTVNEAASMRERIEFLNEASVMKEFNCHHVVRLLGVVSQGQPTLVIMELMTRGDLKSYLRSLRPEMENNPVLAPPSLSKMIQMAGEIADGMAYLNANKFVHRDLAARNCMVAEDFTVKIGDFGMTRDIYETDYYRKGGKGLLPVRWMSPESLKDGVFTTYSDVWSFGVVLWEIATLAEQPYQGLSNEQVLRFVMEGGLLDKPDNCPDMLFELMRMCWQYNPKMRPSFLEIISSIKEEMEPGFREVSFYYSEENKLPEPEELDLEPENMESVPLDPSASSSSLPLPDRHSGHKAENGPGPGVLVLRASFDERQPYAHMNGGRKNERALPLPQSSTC
Sequence of PKC zeta (Q05513 whole entry): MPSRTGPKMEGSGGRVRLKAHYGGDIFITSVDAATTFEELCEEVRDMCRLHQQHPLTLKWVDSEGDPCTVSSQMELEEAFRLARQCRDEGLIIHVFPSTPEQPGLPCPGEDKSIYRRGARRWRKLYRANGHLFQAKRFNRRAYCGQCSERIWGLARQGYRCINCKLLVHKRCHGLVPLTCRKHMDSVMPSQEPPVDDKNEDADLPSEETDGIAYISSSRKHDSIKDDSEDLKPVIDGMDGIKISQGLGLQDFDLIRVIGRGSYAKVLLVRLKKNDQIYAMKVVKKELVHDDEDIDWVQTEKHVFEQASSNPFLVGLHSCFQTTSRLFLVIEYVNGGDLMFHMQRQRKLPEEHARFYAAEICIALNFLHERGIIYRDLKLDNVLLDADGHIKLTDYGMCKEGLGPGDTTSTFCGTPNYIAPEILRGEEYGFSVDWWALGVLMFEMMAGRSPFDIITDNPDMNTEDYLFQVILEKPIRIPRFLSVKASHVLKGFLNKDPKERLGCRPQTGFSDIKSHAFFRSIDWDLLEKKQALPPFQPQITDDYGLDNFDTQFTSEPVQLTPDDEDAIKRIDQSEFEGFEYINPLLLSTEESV
Sequence of MARK3 (P27448 whole entry): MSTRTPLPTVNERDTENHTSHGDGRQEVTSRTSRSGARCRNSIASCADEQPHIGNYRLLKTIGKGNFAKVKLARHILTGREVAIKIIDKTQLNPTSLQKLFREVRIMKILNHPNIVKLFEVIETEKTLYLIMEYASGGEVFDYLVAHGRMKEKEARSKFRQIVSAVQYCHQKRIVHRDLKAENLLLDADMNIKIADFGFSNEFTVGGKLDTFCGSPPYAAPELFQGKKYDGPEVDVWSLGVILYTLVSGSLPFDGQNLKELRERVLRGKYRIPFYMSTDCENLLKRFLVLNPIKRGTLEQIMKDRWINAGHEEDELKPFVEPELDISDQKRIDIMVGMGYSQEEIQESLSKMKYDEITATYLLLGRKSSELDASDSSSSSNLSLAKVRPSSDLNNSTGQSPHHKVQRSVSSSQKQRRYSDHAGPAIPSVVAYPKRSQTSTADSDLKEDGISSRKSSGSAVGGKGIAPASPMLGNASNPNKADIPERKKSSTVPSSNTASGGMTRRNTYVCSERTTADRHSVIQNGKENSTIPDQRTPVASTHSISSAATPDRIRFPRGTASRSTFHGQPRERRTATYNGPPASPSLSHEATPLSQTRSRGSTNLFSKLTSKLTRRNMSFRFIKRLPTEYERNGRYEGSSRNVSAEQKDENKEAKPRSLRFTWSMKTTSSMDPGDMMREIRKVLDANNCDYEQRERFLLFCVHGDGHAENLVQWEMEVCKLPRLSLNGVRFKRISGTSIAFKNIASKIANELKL
Sequence of IKK epsilon (14231) (Q14164 whole entry): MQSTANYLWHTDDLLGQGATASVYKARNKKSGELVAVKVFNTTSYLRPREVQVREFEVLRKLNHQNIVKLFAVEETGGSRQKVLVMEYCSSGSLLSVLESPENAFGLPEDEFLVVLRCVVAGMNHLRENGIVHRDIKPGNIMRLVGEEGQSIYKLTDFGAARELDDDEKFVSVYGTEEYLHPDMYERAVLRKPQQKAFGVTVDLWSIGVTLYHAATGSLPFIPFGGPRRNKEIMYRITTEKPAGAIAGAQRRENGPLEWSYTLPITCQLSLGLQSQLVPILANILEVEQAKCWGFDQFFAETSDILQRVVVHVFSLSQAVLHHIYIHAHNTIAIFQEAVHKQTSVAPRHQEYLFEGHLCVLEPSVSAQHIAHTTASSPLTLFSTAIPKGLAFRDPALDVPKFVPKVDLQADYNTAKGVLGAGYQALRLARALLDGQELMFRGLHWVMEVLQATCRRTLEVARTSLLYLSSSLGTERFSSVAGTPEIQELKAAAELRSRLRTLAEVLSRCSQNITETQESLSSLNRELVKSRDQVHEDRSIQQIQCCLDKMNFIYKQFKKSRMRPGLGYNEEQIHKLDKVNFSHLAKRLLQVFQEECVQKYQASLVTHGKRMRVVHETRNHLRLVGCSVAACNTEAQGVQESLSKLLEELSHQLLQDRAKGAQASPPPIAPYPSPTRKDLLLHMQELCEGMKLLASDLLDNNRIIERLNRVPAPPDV
Sequence of PAK5 (Q9P286 whole entry): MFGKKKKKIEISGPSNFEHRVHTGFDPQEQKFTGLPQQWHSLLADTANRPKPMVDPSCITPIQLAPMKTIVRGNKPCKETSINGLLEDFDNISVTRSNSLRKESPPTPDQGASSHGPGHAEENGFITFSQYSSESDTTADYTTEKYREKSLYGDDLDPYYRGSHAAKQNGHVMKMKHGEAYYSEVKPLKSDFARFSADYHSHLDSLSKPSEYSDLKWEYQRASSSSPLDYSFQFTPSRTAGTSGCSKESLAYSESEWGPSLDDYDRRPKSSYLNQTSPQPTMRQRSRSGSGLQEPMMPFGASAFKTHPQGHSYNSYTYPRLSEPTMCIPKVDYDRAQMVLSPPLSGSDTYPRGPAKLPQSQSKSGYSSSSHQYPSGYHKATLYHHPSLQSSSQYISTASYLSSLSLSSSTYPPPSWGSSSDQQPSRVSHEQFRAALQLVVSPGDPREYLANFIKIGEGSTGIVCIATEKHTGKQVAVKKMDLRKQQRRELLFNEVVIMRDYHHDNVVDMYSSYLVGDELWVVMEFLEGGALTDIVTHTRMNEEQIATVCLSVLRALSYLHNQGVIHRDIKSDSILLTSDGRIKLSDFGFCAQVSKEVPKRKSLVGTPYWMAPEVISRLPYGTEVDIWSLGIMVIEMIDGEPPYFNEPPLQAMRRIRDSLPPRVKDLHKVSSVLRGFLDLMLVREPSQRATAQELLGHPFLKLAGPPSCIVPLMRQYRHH
Sequence of Src (P12931 whole entry): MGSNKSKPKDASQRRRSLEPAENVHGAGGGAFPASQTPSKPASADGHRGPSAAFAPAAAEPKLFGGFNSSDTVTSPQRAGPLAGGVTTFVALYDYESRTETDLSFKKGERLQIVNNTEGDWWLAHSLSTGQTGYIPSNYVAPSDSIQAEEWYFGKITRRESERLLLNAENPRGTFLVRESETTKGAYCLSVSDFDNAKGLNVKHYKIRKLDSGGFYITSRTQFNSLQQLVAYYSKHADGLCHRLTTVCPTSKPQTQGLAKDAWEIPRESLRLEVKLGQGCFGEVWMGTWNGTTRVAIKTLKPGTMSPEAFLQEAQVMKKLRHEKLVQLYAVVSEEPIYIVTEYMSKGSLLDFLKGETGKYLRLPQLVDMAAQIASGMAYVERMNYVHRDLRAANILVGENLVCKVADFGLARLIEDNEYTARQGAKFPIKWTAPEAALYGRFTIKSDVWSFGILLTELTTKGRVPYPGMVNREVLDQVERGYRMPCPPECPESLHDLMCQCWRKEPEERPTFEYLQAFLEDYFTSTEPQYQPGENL
Sequence of PIM2 (Q9P1W9 whole entry): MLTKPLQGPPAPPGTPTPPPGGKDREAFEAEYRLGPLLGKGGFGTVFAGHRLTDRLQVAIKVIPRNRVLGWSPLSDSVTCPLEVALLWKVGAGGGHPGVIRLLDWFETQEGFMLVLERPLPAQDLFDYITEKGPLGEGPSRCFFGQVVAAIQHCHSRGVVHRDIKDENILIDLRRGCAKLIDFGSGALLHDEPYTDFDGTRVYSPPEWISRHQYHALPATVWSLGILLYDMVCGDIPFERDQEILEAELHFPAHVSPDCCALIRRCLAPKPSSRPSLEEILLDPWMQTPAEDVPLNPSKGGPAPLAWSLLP

## COc1cc2c3c(c4c5ccccc5[nH]c4c2c(OC)c1OC)C(=O)NC3=O [Compound 3, 5,6,7-Trimethoxybenzo[a]pyrrolo[3,4-c]carbazole-1,3(2H,8H)-dione]
CAMK1
  remaining activity at 0.1 µM: 94%
CDK2-Cyclin A
  remaining activity at 0.1 µM: 28%
CHK2
  remaining activity at 0.1 µM: 63%
CSK
  remaining activity at 0.1 µM: 99%
DYRK2
  remaining activity at 0.1 µM: 17%
EFK2
  remaining activity at 0.1 µM: 109%
ERK8
  remaining activity at 0.1 µM: 11%
IGF1-R
  remaining activity at 0.1 µM: 65%
IKK epsilon (14231)
  remaining activity at 0.1 µM: 94%
JNK2
  remaining activity at 0.1 µM: 93%
MARK3
  remaining activity at 0.1 µM: 73%
NEK2a
  remaining activity at 0.1 µM: 91%
PAK4
  remaining activity at 0.1 µM: 55%
PAK5
  remaining activity at 0.1 µM: 84%
PDK1
  remaining activity at 0.1 µM: 39%
PHK
  residual activity of PHK, mean percentage activity: 41%
PIM2
  remaining activity at 0.1 µM: 115%
PKBa
  remaining activity at 0.1 µM: 81%
PKBb
  remaining activity at 0.1 µM: 91%
PKC zeta
  remaining activity at 0.1 µM: 98%
PRAK
  remaining activity at 0.1 µM: 85%
RSK1
  remaining activity at 0.1 µM: 51%
S6K1
  remaining activity at 0.1 µM: 28%
SGK1
  remaining activity at 0.1 µM: 52%
Src
  remaining activity at 0.1 µM: 86%
TBK1
  remaining activity at 0.1 µM: 85%
VEG-FR
  residual activity of VEG-FR, mean percentage activity: 37%
YES1
  remaining activity at 0.1 µM: 88%
p38g MAPK
  remaining activity at 0.1 µM: 86%

## COc1cc(C2=C(c3c[nH]c4ccccc34)C(=O)NC2=O)cc(OC)c1OC [Compound 1, 3-(1H-Indol-3-yl)-4-(3,4,5-trimethoxyphenyl)-1H-pyrrole-2,5-dione]
CAMK1
  remaining activity at 0.1 µM: 107%
CDK2-Cyclin A
  remaining activity at 0.1 µM: 59%
CHK2
  remaining activity at 0.1 µM: 64%
CSK
  remaining activity at 0.1 µM: 138%
DYRK2
  remaining activity at 0.1 µM: 57%
EFK2
  remaining activity at 0.1 µM: 104%
ERK8
  remaining activity at 0.1 µM: 46%
IGF1-R
  remaining activity at 0.1 µM: 90%
IKK epsilon (14231)
  remaining activity at 0.1 µM: 85%
JNK2
  remaining activity at 0.1 µM: 78%
MARK3
  remaining activity at 0.1 µM: 90%
NEK2a
  remaining activity at 0.1 µM: 87%
PAK4
  remaining activity at 0.1 µM: 75%
PAK5
  remaining activity at 0.1 µM: 105%
PDK1
  remaining activity at 0.1 µM: 68%
PHK
  residual activity of PHK, mean percentage activity: 73%
PIM2
  remaining activity at 0.1 µM: 115%
PKBa
  remaining activity at 0.1 µM: 66%
PKBb
  remaining activity at 0.1 µM: 98%
PKC zeta
  remaining activity at 0.1 µM: 102%
PRAK
  remaining activity at 0.1 µM: 91%
RSK1
  remaining activity at 0.1 µM: 96%
S6K1
  remaining activity at 0.1 µM: 65%
SGK1
  remaining activity at 0.1 µM: 75%
Src
  remaining activity at 0.1 µM: 81%
TBK1
  remaining activity at 0.1 µM: 87%
VEG-FR
  residual activity of VEG-FR, mean percentage activity: 10%
YES1
  remaining activity at 0.1 µM: 84%
p38g MAPK
  remaining activity at 0.1 µM: 91%
